3 substances from patent US8372580B2, “BRCA1 function-based cellular assays” (Morehouse School of Medicine, priority 2008, dated 2013) can be followed below.

For experiment [1], the system named is ERα transcriptional activity in T47D breast cancer cells. The experiment is described as follows: Cell based assay #2: ERE-luciferase reporter, E2-induced ERα activation by Ubc9 C93S. To be noted: Ubc9 C93S (SUMO-independent), E2 1 μM. Here is the method:
T47D cells (5×10^5) were plated in 6-well plates for 24 hours. The cells were washed twice in PBS followed by the addition of phenol red free DMEM containing 5% charcoal-stripped FBS for 48 hrs before transfection. The cells were transfected with 1 μg of each of the indicated plasmids (with a total of 2.5 μg DNA) using lipofectamine 2000 (Life Technology, USA). The cells were induced with 1 μM of E2 4 hours after transfections, harvested after an additional 40 hrs and assayed for luciferase activity following the manufacturer's instructions. Each set of experiments was performed in triplicate and repeated a least three times.
For orientation: A reporter such as luciferase makes a cellular process visible.

The target of experiment [2] is T1, Ubc9 (Homo sapiens, UniProt P63279).
T1 construct: made in house; host or cells: E. coli
T1 sequence (P63279 whole entry, species assumed): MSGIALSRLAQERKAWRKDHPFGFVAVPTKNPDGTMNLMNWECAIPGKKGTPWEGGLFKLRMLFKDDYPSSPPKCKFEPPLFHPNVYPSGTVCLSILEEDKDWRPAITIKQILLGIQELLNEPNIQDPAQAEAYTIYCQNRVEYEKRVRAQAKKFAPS
The experiment is described as follows: GST capture (pull-down) assay of binding to Ubc9. Conditions: in vitro translated full length protein. The text has this: GST-Ubc9 and GST-ERα (337-379) were expressed and purified from E. coli as described previously (Wang H, Shao N, Ding O M, Cui J, Reddy E S P, Rao V N: BRCA1 proteins are transported to the nucleus in the absence of serum and splice variants BRCA1a, BRCA1b are tyrosine phosphoprotein that associate with E2F, cyclins and cyclin dependent kinases. Oncogene 15, 143-157: 1997.). For in vitro protein binding assay 35 S-Methionine-labeled in vitro translated full length BRCA1, BRCA1a (Chai Y L, Cui J, Chipitsyna G, Liao B, Lui S, Aysola K et al.: C-Fos oncogene regulator Elk-1 interacts with BRCA1 splice variants BRCA 1a/1b and enhances BRCA1a/1b mediated growth suppression in breast cancer cells. Oncogene 20: 1357-1367, 2001.), BRCA1b, BRCA1 Mut#1, BRCA1 Mut#4, BRCA1 1-182, BRCA1 1-182 Mut#1 and BRCA1 1-182 Mut 4 proteins were diluted in binding buffer (20 mM Tris-HCl (pH7.5), 150 mM NaCl, 0.1% Tween 20). The proteins were precleared with GSH beads for 30 min and then incubated with GST or various GST-ER (337-379) proteins beads for 2 hours at 4° C. The beads were then washed three times with binding buffer followed by elution of the bound proteins with SDS sample buffer and loaded on a 15% SDS-PAGE. The gels were fixed, treated with enhance, dried and exposed 9 to X-ray films) and scanned using a Fuji BioImaging analyzer. […]

Take “BRCA1 Mutant #1: BRCA1 point mutant 1; apparently SUMO acceptor site mutation lysine (K) 109 to arginine (R)”: the “inhibition of E2-mediated ERα transcription activation by Ubc9/C93S” value (from here on “inhibition”) in experiment [1] is “unlike their respective Mut #1 and Mut#4, inhibit”.

Regarding “BRCA1: full-length product of the BRCA1 (breast cancer 1) tumor suppressor gene”, in experiment [1], the “inhibition” value is listed as “inhibit E2-mediated ERα transcription activation by Ubc9/C93S”.

“BRCA1 Mutant #4: full length BRCA1 with RING domain cancer-predisposing mutation C61G”: in experiment [2], the “binding to Ubc9” value is “did not observe any significant binding”. Also, the “inhibition” value in experiment [1] was “unlike their respective Mut #1 and Mut#4, inhibit”.
